# Data taken from ChEMBL document CHEMBL4190268, “Design, synthesis and biological studies of a library of NK1-Receptor Ligands Based on a 5-arylthiosubstituted 2-amino-4,6-diaryl-3-cyano-4H-pyran core: Switch from antagonist to agonist effect by chemical modification” (Eur J Med Chem, 2017).
# Active and inactive are the calls of the source. The calls are words filed in the database; no cut-off is given here.
# Molecular target: T1, Substance-P receptor (Homo sapiens, UniProt P25103)
# Test: Partial agonist activity at His6-tagged NK1 receptor (unknown origin) expressed in CHO cells assessed as IP1 accumulation at 10^-5 M measured after 30 mins by HTRF-FRET assay relative to control
# Type: functional, cell-based
# Details: not given
# T1 sequence (P25103 whole entry): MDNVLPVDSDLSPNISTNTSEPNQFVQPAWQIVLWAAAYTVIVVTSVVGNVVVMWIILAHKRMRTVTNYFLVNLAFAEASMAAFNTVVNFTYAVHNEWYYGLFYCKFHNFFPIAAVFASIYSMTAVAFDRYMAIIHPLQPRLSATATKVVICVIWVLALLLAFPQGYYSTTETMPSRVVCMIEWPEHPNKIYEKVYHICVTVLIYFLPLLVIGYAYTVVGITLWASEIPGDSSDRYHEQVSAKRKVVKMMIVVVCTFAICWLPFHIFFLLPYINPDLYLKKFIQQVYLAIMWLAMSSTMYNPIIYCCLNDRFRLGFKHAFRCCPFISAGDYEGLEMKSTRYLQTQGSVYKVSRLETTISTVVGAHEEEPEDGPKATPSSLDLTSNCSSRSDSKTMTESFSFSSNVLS
row,SMILES,Activity [%]
1,Cc1ccc(SC2=C(c3ccccn3)OC(NC(=O)C(F)(F)F)=C(C#N)[C@H]2c2ccc([N+](=O)[O-])cc2)cc1,25.9
2,CC(=O)NC1=C(C#N)[C@@H](c2ccc(C)cc2)C([S@@+]([O-])c2ccc(C)cc2)=C(c2ccccn2)O1,19.8
3,Cc1ccc(SC2=C(c3ccccn3)OC(NC(=O)C(F)(F)F)=C(C#N)[C@H]2c2ccccc2)cc1,13.5

# Molecular target: T1, Substance-P receptor
# Test: Antagonist activity at His6-tagged NK1 receptor (unknown origin) expressed in CHO cells assessed as inhibition of substance-P-induced IP1 accumulation at 10^-5 M preincubated for 10 mins followed by substance-P addition measured after 30 mins by HTRF-FRET assay relative to control
# Type: functional, cell-based
# Details: not given
row,SMILES,inhibition [%]
1,Cc1ccc([S@+]([O-])C2=C(c3ccccn3)OC(N)=C(C#N)[C@H]2c2ccccc2)cc1,42
2,Cc1ccc([C@H]2C(C#N)=C(N)OC(c3ccccn3)=C2[S@+]([O-])c2ccc(C)cc2)cc1,37.5
3,Cc1ccc([S@+]([O-])C2=C(c3ccccn3)OC(N)=C(C#N)[C@H]2c2cc(C(F)(F)F)cc(C(F)(F)F)c2)cc1,30
4,Cc1ccc([S+]([O-])C2=C(c3ccccn3)OC(N)=C(C#N)C2c2ccc(Cl)cc2)cc1 (racemic),13.9
5,Cc1ccc([S@@+]([O-])C2=C(c3ccccn3)OC(N)=C(C#N)[C@@H]2c2ccc([N+](=O)[O-])cc2)cc1,18.5
6,Cc1ccc([S@+]([O-])C2=C(c3ccccn3)OC(N)=C(C#N)[C@H]2c2ccc(Cl)cc2)cc1,30
7,N#CC1=C(N)OC(c2ccccn2)=C(S(=O)(=O)c2ccccc2)C1c1ccc([N+](=O)[O-])cc1 (racemic),45.5
8,N#CC1=C(N)OC(c2ccccn2)=C([S+]([O-])c2ccccc2)C1c1ccc([N+](=O)[O-])cc1 (racemic),33.5
9,Cc1ccc([C@@H]2C(C#N)=C(N)OC(c3ccccn3)=C2[S@@+]([O-])c2ccc(C)cc2)cc1,37
10,Cc1ccc(C2C(C#N)=C(N)OC(c3ccccn3)=C2[S+]([O-])c2ccc(C)cc2)cc1 (racemic),32.8
11,Cc1ccc([S@@+]([O-])C2=C(c3ccccn3)OC(N)=C(C#N)[C@@H]2c2ccccc2)cc1,28.8
12,COc1ccc([C@H]2C(C#N)=C(N)OC(c3ccccn3)=C2[S@+]([O-])c2ccc(C)cc2)cc1,-4.43
13,Cc1ccc([S@+]([O-])C2=C(c3ccccn3)OC(N)=C(C#N)[C@H]2c2ccc([N+](=O)[O-])cc2)cc1,43.3
14,CC(=O)NC1=C(C#N)[C@H](c2ccc(C)cc2)C([S@+]([O-])c2ccc(C)cc2)=C(c2ccccn2)O1,21.4
15,CC(=O)NC1=C(C#N)[C@@H](c2ccc(C)cc2)C([S@@+]([O-])c2ccc(C)cc2)=C(c2ccccn2)O1,33.3
16,Cc1ccc(SC2=C(c3ccccn3)OC(NC(=O)C(F)(F)F)=C(C#N)[C@H]2c2ccccc2)cc1,6.93

# System: A549
# Test: cells
# Details: Homo sapiens, A549, 48 h
row,SMILES,IC50 [µM]
1,Cc1ccc([S@+]([O-])C2=C(c3ccccn3)OC(N)=C(C#N)[C@H]2c2ccccc2)cc1,172
2,N#CC1=C(N)OC(c2ccccn2)=C(S(=O)(=O)c2ccccc2)C1c1ccc([N+](=O)[O-])cc1 (racemic),148
3,Cc1ccc([S@@+]([O-])C2=C(c3ccccn3)OC(N)=C(C#N)[C@@H]2c2ccccc2)cc1,196
4,COc1ccc([C@H]2C(C#N)=C(N)OC(c3ccccn3)=C2[S@+]([O-])c2ccc(C)cc2)cc1,508
5,CC(=O)NC1=C(C#N)[C@@H](c2ccc(C)cc2)C([S@@+]([O-])c2ccc(C)cc2)=C(c2ccccn2)O1,108

# System: A549
# Test: Growth inhibition of human A549 cells at 10^3 uM after 48 hrs by MTT assay relative to control
# Type: functional
# Details: not given
row,SMILES,growth inhibition (GI) [%]
1,COc1ccc([C@H]2C(C#N)=C(N)OC(c3ccccn3)=C2[S@+]([O-])c2ccc(C)cc2)cc1,100

# System: A549
# Test: Growth inhibition of human A549 cells at 1 mM by inverted microscopic method
# Type: functional, cell-based
# Details: not given
row,SMILES,growth inhibition (GI)
1,COc1ccc([C@H]2C(C#N)=C(N)OC(c3ccccn3)=C2[S@+]([O-])c2ccc(C)cc2)cc1,Active

# System: MRC5
# Test: Cytotoxicity against human MRC5 cells assessed as cell death at greater than cytotoxic IC50 after 48 hrs by MTT assay relative to control
# Type: cell-based
# Details: mrc5, 48 h
row,SMILES,Activity [%]
1,Cc1ccc([S@+]([O-])C2=C(c3ccccn3)OC(N)=C(C#N)[C@H]2c2ccccc2)cc1,< 30

# Molecular target: T1, Substance-P receptor
# Test: Partial agonist activity at His6-tagged NK1 receptor (unknown origin) expressed in CHO cells assessed as IP1 accumulation measured after 30 mins by HTRF-FRET assay
# Type: functional, cell-based
# Details: not given
row,SMILES,EC50 [µM]
1,Cc1ccc(SC2=C(c3ccccn3)OC(NC(=O)C(F)(F)F)=C(C#N)[C@H]2c2ccc([N+](=O)[O-])cc2)cc1,350

# System: MRC5
# Test: cells
# Details: Homo sapiens, MRC5, 48 h
# Description: Cytotoxicity against human MRC5 cells after 48 hrs by MTT assay
row,SMILES,IC50 [µM]
1,Cc1ccc([S@+]([O-])C2=C(c3ccccn3)OC(N)=C(C#N)[C@H]2c2ccccc2)cc1,132
2,N#CC1=C(N)OC(c2ccccn2)=C(S(=O)(=O)c2ccccc2)C1c1ccc([N+](=O)[O-])cc1 (racemic),140
3,Cc1ccc([S@@+]([O-])C2=C(c3ccccn3)OC(N)=C(C#N)[C@@H]2c2ccccc2)cc1,425
4,CC(=O)NC1=C(C#N)[C@@H](c2ccc(C)cc2)C([S@@+]([O-])c2ccc(C)cc2)=C(c2ccccn2)O1,136

# System: not listed separately
# Test: Cytotoxicity against human MRC5 cells assessed as cell growth inhibition at 10^3 uM after 48 hrs by MTT assay relative to control
# Type: cell-based
# Details: read-out: GI
row,SMILES,"inhibition at 48 h, 1000 uM [%]"
1,COc1ccc([C@H]2C(C#N)=C(N)OC(c3ccccn3)=C2[S@+]([O-])c2ccc(C)cc2)cc1,30

# System: A549
# Test: Cytotoxicity against human A549 cells assessed as cell death at greater than antiproliferative IC50 after 48 hrs by MTT assay relative to control
# Type: functional
# Details: not given
row,SMILES,Activity
1,Cc1ccc([S@+]([O-])C2=C(c3ccccn3)OC(N)=C(C#N)[C@H]2c2ccccc2)cc1,<=80%

# Molecular target: T1, Substance-P receptor
# Test: Antagonist activity at His6-tagged NK1 receptor (unknown origin) expressed in CHO cells assessed as inhibition of substance-P-induced IP1 accumulation at 5 x 10^-5M preincubated for 10 mins followed by substance-P addition measured after 30 mins by HTRF-FRET assay relative to control
# Type: functional, cell-based
# Details: not given
row,SMILES,inhibition [%]
1,Cc1ccc([S@+]([O-])C2=C(c3ccccn3)OC(N)=C(C#N)[C@H]2c2ccccc2)cc1,51.1
2,Cc1ccc([C@H]2C(C#N)=C(N)OC(c3ccccn3)=C2[S@+]([O-])c2ccc(C)cc2)cc1,23.7
3,Cc1ccc([S@+]([O-])C2=C(c3ccccn3)OC(N)=C(C#N)[C@H]2c2cc(C(F)(F)F)cc(C(F)(F)F)c2)cc1,28.6
4,Cc1ccc([S+]([O-])C2=C(c3ccccn3)OC(N)=C(C#N)C2c2ccc(Cl)cc2)cc1 (racemic),15.8
5,Cc1ccc([S@@+]([O-])C2=C(c3ccccn3)OC(N)=C(C#N)[C@@H]2c2ccc([N+](=O)[O-])cc2)cc1,20.6
6,Cc1ccc([S@+]([O-])C2=C(c3ccccn3)OC(N)=C(C#N)[C@H]2c2ccc(Cl)cc2)cc1,21
7,Cc1ccc(SC2=C(c3ccccn3)OC(NC(=O)C(F)(F)F)=C(C#N)[C@H]2c2ccc([N+](=O)[O-])cc2)cc1,23.8
8,N#CC1=C(N)OC(c2ccccn2)=C(S(=O)(=O)c2ccccc2)C1c1ccc([N+](=O)[O-])cc1 (racemic),68.5
9,N#CC1=C(N)OC(c2ccccn2)=C([S+]([O-])c2ccccc2)C1c1ccc([N+](=O)[O-])cc1 (racemic),45.9
10,Cc1ccc([C@@H]2C(C#N)=C(N)OC(c3ccccn3)=C2[S@@+]([O-])c2ccc(C)cc2)cc1,50.8
11,Cc1ccc(C2C(C#N)=C(N)OC(c3ccccn3)=C2[S+]([O-])c2ccc(C)cc2)cc1 (racemic),32.2
12,Cc1ccc([S@@+]([O-])C2=C(c3ccccn3)OC(N)=C(C#N)[C@@H]2c2ccccc2)cc1,20.9
13,COc1ccc([C@H]2C(C#N)=C(N)OC(c3ccccn3)=C2[S@+]([O-])c2ccc(C)cc2)cc1,28.1
14,Cc1ccc([S@+]([O-])C2=C(c3ccccn3)OC(N)=C(C#N)[C@H]2c2ccc([N+](=O)[O-])cc2)cc1,49.7
15,CC(=O)NC1=C(C#N)[C@H](c2ccc(C)cc2)C([S@+]([O-])c2ccc(C)cc2)=C(c2ccccn2)O1,37.1
16,CC(=O)NC1=C(C#N)[C@@H](c2ccc(C)cc2)C([S@@+]([O-])c2ccc(C)cc2)=C(c2ccccn2)O1,47.2
17,Cc1ccc(SC2=C(c3ccccn3)OC(NC(=O)C(F)(F)F)=C(C#N)[C@H]2c2ccccc2)cc1,36.8

# Molecular target: T1, Substance-P receptor
# Test: Antagonist activity at His6-tagged NK1 receptor (unknown origin) expressed in CHO cells assessed as inhibition of substance-P-induced IP1 accumulation preincubated for 10 mins followed by substance-P addition measured after 30 mins by HTRF-FRET assay
# Details: not given
row,SMILES,IC50 [µM]
1,N#CC1=C(N)OC(c2ccccn2)=C(S(=O)(=O)c2ccccc2)C1c1ccc([N+](=O)[O-])cc1 (racemic),200

# Molecular target: T1, Substance-P receptor
# Test: Partial agonist activity at His6-tagged NK1 receptor (unknown origin) expressed in CHO cells assessed as IP1 accumulation at 5 x 10^-5M measured after 30 mins by HTRF-FRET assay relative to control
# Type: functional, cell-based
# Details: not given
row,SMILES,Activity [%]
1,Cc1ccc(SC2=C(c3ccccn3)OC(NC(=O)C(F)(F)F)=C(C#N)[C@H]2c2ccc([N+](=O)[O-])cc2)cc1,62.3
2,CC(=O)NC1=C(C#N)[C@H](c2ccc(C)cc2)C([S@+]([O-])c2ccc(C)cc2)=C(c2ccccn2)O1,30.4
3,CC(=O)NC1=C(C#N)[C@@H](c2ccc(C)cc2)C([S@@+]([O-])c2ccc(C)cc2)=C(c2ccccn2)O1,30.4
4,Cc1ccc(SC2=C(c3ccccn3)OC(NC(=O)C(F)(F)F)=C(C#N)[C@H]2c2ccccc2)cc1,34.2
